Literature values in patent publication US8435963B2, “Weight loss compositions and uses thereof” (priority 2008, dated 2013).
Structures can show the parent of a compound that is named as a salt. Where two headings read alike, the source gives them in different places.

SMILES | half-life (human, in vivo) | half-life (humans)
COC(=O)[C@@H]1[C@H]2C[C@H]3c4[nH]c5cc(O)ccc5c4CCN3C[C@@H]2CC[C@@H]1O [11-Hydroxy yohimbine] | 8 to 11 h | –
COC(=O)[C@@H]1[C@H]2C[C@H]3c4[nH]c5ccccc5c4CCN3C[C@@H]2CC[C@@H]1O [yohimbine HCl, 17α-hydroxy-yohimban-16α-carboxylic acid methyl ester] | – | 2.5 h
